The source of these data is patent US10238641B2, “Materials and methods for diagnosis, prevention and/or treatment of stress disorders and conditions associated with A-beta peptide aggregation” (The United States of America as represented by the …, priority 2008, dated 2019).

The subject of data set [1] is sensorimotor abilities in mice. The experiment in a line: Open field activity test. Conditions: data not shown. Format: in vivo.
The test system of data set [2] is fear-induced anxiety in mice. Put plainly: Elevated plus maze after fear conditioning (fear-induced anxiety). Format: in vivo. The protocol: Mice were trained for FC. After the retention test, the mice were tested for anxiety levels in the EPM. The number of entries into the open and closed arms and the exploratory behavior of the mice were determined using a video tracking software that measures movement in each section of the EPM.
To determine the effect of cotinine treatment on the levels of anxiety in the mice after re-exposure to a fear memory, we performed the same EPM test but 24 h after fear conditioning training (shock in the chamber) and immediately after re-exposure to the context (chamber), a reminder of the unconditioned aversive stimulus (the electric shock).

Data set [3] deals with phospho-CREB (Serine 133). The experiment in a line: BDNF-stimulated phosphorylation of CREB after Aβ exposure, Western blot. Format: cell-based, rat. The note with it: 5 μM Aβ1-42 + 10 μM cotinine 5 h, then BDNF 1 h. On the procedure:
Western blot analysis of the BDNF-stimulated phosphorylation of CREB in extracts of cortical cells. Cells were exposed to vehicle, 5 μM Aβ alone or 5 μM Aβ plus 10 μM cotinine for 5 hours, then to BDNF (50 ng/ml) for 1 hour and analyzed for CREB by western blot (FIG. 6B). The histogram (FIG. 6A) represents the levels of phospho-CREB (Ser133) normalized against β-Tubulin used as a control of protein loading. The values represent significant (*) difference with P<0.05.
Rat embryonic cortical cells were cultured in 24-well plates (0.3×10^6 cells/well) for 7 days, washed with PBS, collected and disrupted by sonication in ice-cold cell lysis buffer containing (20 mM Tris (pH 7.4), 150 mM NaCl, 1 mM ethylenediaminetetraacetic acid (EDTA), 1 mM egtazic acid (EGTA), 1% triton, 2.5 mM Na pyrophosphate, 1 mM β-glycerophosphate, 1 mM Na orthovanadate, 1 μg/ml leupeptin) (Cell Signaling Technology, Beverly, Mass., USA), 1 mM phenylmethylsulfonyl fluoride (PMSF) (Sigma) complete protease inhibitor cocktail (Roche Molecular Biochemicals, Indianapolis, Ind., USA). […] Protein concentration of supernatants was measured by Bio-Rad protein assay (Bio-Rad, Hercules, Calif., USA), and equal amounts of protein were separated by gradient (4-20%) SDS-PAGE and transferred to nitrocellulose membranes (BA83 0.2 μm; Bio-Rad). […]

The target of a further data set is T1, Aβ1-42 peptide (Homo sapiens, UniProt P05067).
T1 construct: Aβ1-42 peptide was obtained from American Peptide; purchased American Peptide (Sunnyvale, Calif., USA)
Put plainly: AFM analysis of Aβ1-42 fibrillation. Format: biochemical. On the procedure:
Since the aggregation behavior of Aβ is dependent on the presence of small concentrations of aggregated forms of the peptide, that are present in many commercial samples, we prepared the Aβ solution by first dissolving the peptide in Hexafluoroisopropanol (HFIP), a protocol that produces a starting solution constituted only of Aβ monomers (Chromy et al. (2003)). Lyophillized Aβ1-42 (American peptide) (1 mg) was dissolved in HFIP, evaporated and re-dissolved in 22 μl of dimethyl sulfoxide (DMSO, St. Louis, Mo.). These peptide preparations were then diluted in PBS buffer pH 7.4 alone or PBS plus cotinine to obtain solutions containing 1 mM Aβ1-42 with and without 2 mM cotinine. Then the Aβ1-42 solutions were incubated for 10 days and the formation of oligomers and fibers was examined.
20 μl aliquots of Aβ solutions were deposited on freshly cleaned and dried silicon wafers (approximately 1 mm thick). After waiting for 10 min, non-adsorbed portions of the samples were washed with de-ionized water (2000 μl). The wet surface of the silicon wafer was then dried using gentle flow of air.
The AFM analysis was performed using an AFM apparatus (AFM, βA multimode SPM, Model no. 920-006-101, Vecco) that permits the acquisition of images using a tapping mode approach. This approach allows intermittent contact of the tip with the sample and minimizes the chances of deformation of the peptide samples. The cantilever and the tip were made up of silicon and the cantilever force constant was approximately 20-100 N/m with the resonance frequency between 200-400 khz. The scan rate was between 1.0 to 1.2 Hz. The analysis of fibrils and oligomers was performed using the software NanoScope Control, version 5.30.
To investigate whether cotinine in addition to Aβ oligomerization also affected fibril formation, we used Atomic force miscroscopy (AFM) to analyze Aβ aggregation. The solutions were prepared dissolving Aβ in HFIP and after evaporation, in PBS alone or containing cotinine and incubated at 37° C. for 3 and 10 days.

For another data set, the target named is Aβ (Homo sapiens, UniProt P05067). The experiment in a line: Binding of cotinine to Aβ in vitro.

The structures appear in SMILES notation.

T1 sequence (P05067 672-713 limits assumed): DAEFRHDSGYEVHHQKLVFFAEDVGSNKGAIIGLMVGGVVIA
Sequence of Aβ (P05067 672-713 limits assumed): as above

For the molecule `CN1C(=O)CC[C@H]1c1cccnc1` [cotinine], in data set [1], the “sensorimotor abilities (open field activity test)” value was “no changes in sensorimotor abilities were detected”. For the same molecule, the “difference in time in the closed arms, untreated compared with cotinine (EPM after FC)” value is listed as “highly significant” in data set [2] (cotinine 1 mg/kg, p=0.0060) and “highly significant” in data set [2] (cotinine 5 mg/kg, p=0.0111). For the same molecule, the “time in the open arms, vehicle compared with cotinine (EPM after FC)” value is “significantly less time in the open arms” in data set [2] (cotinine 1 mg/kg, p=0.0101) and “no significant differences” in data set [2] (cotinine 5 mg/kg, p=0.0545). Moreover, the “time exploring, vehicle compared with cotinine (EPM after FC)” value in data set [2] (cotinine 1 mg/kg, p=0.0145) is on record as “significantly less time exploring”; in data set [2] (cotinine 5 mg/kg, p=0.0025) it was “significantly less time exploring”. Also, the “increase of phosphoCREB versus cells treated with BDNF plus Aβ1-42” value in data set [3] came to 34%. In data set [3], the “phosphoCREB level relative to control cells” value is “indistinguishable from the control cell values”. Moreover, on Aβ1-42 peptide (1 mM Aβ1-42 + 2 mM cotinine, 10 days 37° C.), the “effect on Aβ aggregation and fibril length (AFM)” value is “reduced Aβ aggregation and the length of Aβ fibrils”. At Aβ1-42 peptide (1 mM Aβ1-42 + 2 mM cotinine, 10 days 37° C., n=23, without cotinine 345±42), the “average length of Aβ fibrils” value is 223±36. Besides, at Aβ1-42 peptide (unchanged by presence of cotinine), the “average diameter of the fibers” value is given as 22-24 nm. The “binding to Aβ” value on Aβ is reported as “high affinity”.
